Experimental data taken from US20150150892A1, “METHODS AND PRODUCTS RELATED TO LUNG CANCER” (Massachusetts Institute of Technology, priority 2012, published 2015).

Experiments:
[1] = test system: LKR13 cells and 3TZ fibroblasts; assay: Trypan blue quantification of cell death, control cells; format: cell-based, mouse; conditions: 24 hours
K lung tumors = assay: CC3 immunohistochemistry in K lung tumors; format: in vivo, mouse; conditions: KrasLSL-G12D/wt mice, all time points assayed
Experimental: FIG. 4: Bortezomib induces apoptosis in KP lung tumors. (4A and 4B) H&E and CC3 immunohistochemistry staining (×200) in vehicle control- and bortezomib-treated KP (4A) and K (4B) lung tumors. (4C and 4D) quantification of CC3-positive cells in bortezomib-treated KP (4C) and K (4D) lung tumors at indicated time points. “0 hour” represents vehicle control-treated tumors. Error bars are SD (n>10 for each time point).
Mice were sacrificed by carbon dioxide asphyxiation. Lungs were inflated with 4% formalin (neutral buffered formalin), fixed overnight, and transferred to 70% ethanol. Lung lobes were embedded in paraffin and sectioned at 4 μm and stained with H&E for tumor pathologic study. For staining with anti-CC3 antibodies (#9661; Cell Signaling), lung tumor sections were dewaxed, rehydrated, and subjected to high-temperature antigen retrieval—10 minutes of boiling in a pressure cooker in 0.01 M citrate buffer, pH 6.0. Slides were stained overnight at 4° in 1:100 primary antibody. A goat anti-rabbit horseradish peroxidase-conjugated secondary antibody (Vector Laboratories) was used at 1:200 dilution, incubated for 1 hour at room temperature, followed by diaminobenzidine staining (Vector Laboratories). The number of positive cells per tumor area was quantified using Bioquant software from >10 tumors in ≧3 mice per group (2).

KrasLSL-G12D/wt mice = assay: Kaplan-Meier survival of K mice; format: in vivo, mouse; conditions: KrasLSL-G12D/wt cohort, weekly 1 mg/kg bortezomib; P=0.36
Experimental: (5A and 5B) Kaplan-Meier survival curve of vehicle control and bortezomib-treated KP (5A) and K (5B) mice. Arrows indicate weekly 1 mg/kg bortezomib regimen.
To initiate lung tumors, cohorts of K or KP mice of 129svJae background were infected with 2.5×10^7 plaque-forming units of Adeno-Cre (University of Iowa) by intranasal inhalation, as described previously (2, 28). Mice were given bortezomib (LC Labs) in PBS [0.5% dimethylsulfoxide (DMSO)] at 1 mg/kg body weight i.v., as indicated. Bay-117082 (CalBiochem) was dissolved in DMSO, diluted in PBS as a fine suspension, and injected at 10 mg/kg body weight i.p., as indicated.
Using a cohort of KP mice, we treated tumor-bearing animals 8 weeks after Adeno-Cre infection with bortezomib once a week for 4 weeks (FIG. 10A).

[2] = test system: luciferase-tagged KP cells transplanted into immunocompetent recipient mice; assay: Orthotopic lung tumor model, survival and bioluminescence imaging; format: in vivo, mouse
Source text: FIG. 6: Imaging bortezomib response and resistance in an orthotopic lung tumor model. (6A) experimental design. Lung cancer cells derived from KP tumors were infected with a retrovirus expressing luciferase and transplanted into immunocompetent recipient mice by tail vein injection. (6B) Kaplan-Meier survival curve of control and bortezomib-treated recipient mice (n=6; P=1.4×10−5). A total of 10,000 cells were transplanted, and treatment started after 35 days. (6C) representative bioluminescence imaging of recipient mice (n=6) treated with vehicle control or bortezomib, as in 6B. D0 refers to the first treatment. Arrows indicate weekly bortezomib regimen.
FIG. 7: The NF-κB inhibitor Bay-117082 leads to lung tumor regression in vivo. (7A) quantitative PCR analysis of NF-κB target gene expression in KP cells treated with 10 μM Bay-117082 for indicated hours. Error bars are SD (n=3). (7B) Bay-117082 treatment leads to lung tumor regression and delays tumor progression in the orthotopic lung tumor model. A total of 50,000 luciferase-tagged KP cells were transplanted into recipient mice (n=6), and treatment was started at 19 days after transplantation (set at D0). Mice were treated with vehicle control or 10 mg/kg Bay-117082 by i.p. injection, and imaged at the indicated time points. Arrows indicate Bay-117082 injections. (7C) Bay-117082 prolongs survival in the KP model (n=6; P=0.008). “i.p. dosing” indicates treatment with 3 doses per week.
At indicated time points, mice were scanned for 15 min under isoflurane anesthesia, using a small animal eXplore Locus microCT (GE Healthcare) at 45-μm resolution, 80 kV, with 450-mA current (47). Images were acquired and processed using GE eXplore software. Bioluminescence imaging was performed as previously described (48). Mice were imaged for 60 seconds, and signals in the lung were quantified using Xenogen software.
To facilitate imaging of the bortezomib treatment response, we adapted a transplantation-based orthotopic lung cancer mouse model (37). As outlined in FIG. 6A, we infected KP cell lines with a retrovirus expressing firefly luciferase. The cells were transplanted into immunocompetent recipient mice by i.v. injection, resulting in the development of in situ lung tumors that could be imaged and quantified by bioluminescence imaging.
To determine whether bortezomib therapy was effective in the orthotopic model, we transplanted 10,000 KP cells into host mice and treated the mice 5 weeks later, either with control or with a weekly 4-dose regimen of bortezomib (37).

[3] = test system: Kras^G120;p53^fl/fl (high NF-κB) mice; assay: FIG. 19 study, mice with high NF-κB; format: in vivo, mouse; conditions: 1 kg/mg IV bortezomib
Experimental: FIG. 19 is a schetaic diagram showing the experimental conditions and a set of graphs showing the results. Two sets of mice were treated with […] IV bortezomib, Kras^G120;p53^fl/fl (high NF-κB, top panel) or KrasL^St-G12Dwt (low NF-κB, bottom panel). […] The relapsed tumors have high Hmcgs2.
Mice having either high or low levels of NF-κB were treated with […] IV bortezomib and examined for tumor progression, apoptosis and survival. The mice are Kras^G120;p53^fl/fl (high NF-κB) or KrasL^St-G12Dwt (low NF-κB). […] The relapsed tumors have high Hmcgs2.

[4] = test system: CDK inhibitors p21 and p27; conditions: cited from earlier work
[5] = orthotopic model, weekly bortezomib

**Q.** What does the source list for `CC(C)C[C@H](NC(=O)[C@H](Cc1ccccc1)NC(=O)c1cnccn1)B(O)O` [bortezomib, N-(2-pyrazine) carbonyl-L-phenylalanine-L-leucine boronic acid]?
**A.** cell death by Trypan blue counting [1]: did not show substantial cell death; apoptotic cells in K-only tumors (K lung tumors): did not detect a substantial number of apoptotic cells; survival (KrasLSL-G12D/wt mice): no improvement in survival; average survival ([2]; 10,000 KP cells transplanted, weekly 4-dose bortezomib from 5 weeks, control 47.0±2.0 days, P=1.4×10^−5): 64.0 ± 5.4 days; bioluminescence tumor signal at day 2 and day 4 ([2]; orthotopic model, after first bortezomib treatment): marked tumor regression; effect of a 4th dose [2, 5]: ineffective; lung tumor signal after the 2nd and 3rd treatments [2, 5]: still decreased or stabilized; tumor response, apoptosis and survival (FIG. 19) [3]: rapid tumor progression, apoptosis, and increased survival; effect on CDK inhibitors p21 and p27 [4]: stabilize
